The record followed here is patent US9932340B2, “Substituted indoles” (AbbVie Inc., priority 2014, dated 2018).

Chain of SUV420H1 enzyme (Q4FZB7 whole entry): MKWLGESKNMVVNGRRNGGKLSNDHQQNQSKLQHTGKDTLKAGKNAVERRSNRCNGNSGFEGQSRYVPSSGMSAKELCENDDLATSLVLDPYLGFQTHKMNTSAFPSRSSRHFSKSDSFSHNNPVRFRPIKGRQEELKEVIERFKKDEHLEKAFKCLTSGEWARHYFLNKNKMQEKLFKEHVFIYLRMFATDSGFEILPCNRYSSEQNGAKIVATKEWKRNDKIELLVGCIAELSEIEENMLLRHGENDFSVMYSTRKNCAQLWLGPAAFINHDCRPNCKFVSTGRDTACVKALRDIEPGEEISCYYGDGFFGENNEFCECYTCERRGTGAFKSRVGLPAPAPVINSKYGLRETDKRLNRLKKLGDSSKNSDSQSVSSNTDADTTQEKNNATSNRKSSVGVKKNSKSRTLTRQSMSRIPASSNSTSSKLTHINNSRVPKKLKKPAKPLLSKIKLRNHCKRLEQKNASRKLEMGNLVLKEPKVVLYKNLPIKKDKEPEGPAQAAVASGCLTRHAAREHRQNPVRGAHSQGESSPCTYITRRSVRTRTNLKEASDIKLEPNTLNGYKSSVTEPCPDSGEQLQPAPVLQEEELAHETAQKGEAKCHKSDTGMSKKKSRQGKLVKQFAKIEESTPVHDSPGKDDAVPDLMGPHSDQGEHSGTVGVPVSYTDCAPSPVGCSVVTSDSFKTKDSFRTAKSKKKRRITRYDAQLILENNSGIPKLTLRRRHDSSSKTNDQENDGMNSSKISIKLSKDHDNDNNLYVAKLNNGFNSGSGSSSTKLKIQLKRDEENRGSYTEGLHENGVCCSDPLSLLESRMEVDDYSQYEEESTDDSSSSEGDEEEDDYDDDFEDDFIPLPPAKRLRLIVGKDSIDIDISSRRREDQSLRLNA

This assay addresses SUV420H1 enzyme (Homo sapiens, UniProt Q4FZB7). Kind of assay: TR-FRET SAH SUV420H1 enzyme inhibition assay. The class given is biochemical. As to conditions: Histone Peptide H4(8-30)me1 and SAM, overnight at room temp, TR-FRET detection of SAH, read-out: TR-FRET SAH_SUV420H1 IC50. The procedure, abridged:
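SUV420H1 (90 nM) preincubated 30 min with compound (3-fold dilutions, 50 to 0.00075 μM), then H4(8-30)me1 peptide 5 nM and SAM 4 nM added, overnight at room temp. SAH product detected by TR-FRET with Tb anti-SAH antibody and Oregon Green-SAH in RIPA buffer, 4 h; IC50 from Hill fit, asymptotes fixed 0-100%.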
Take `NCc1cc2cc(-c3ccc4c(c3)CCO4)cc(Cn3cnc4c(N)ncnc43)c2[nH]1` [Example 57, 9-{[2-(aminomethyl)-5-(2,3-dihydro-1-benzofuran-5-yl)-1H-indol-7-yl]methyl}-9H-purin-6-amine]: the IC50 was found to be 457 nM.
The value for `CN1CCN(Cc2cccc(-c3cc(Cn4cnc5c(N)ncnc54)c4[nH]c(CN)cc4c3)c2)CC1` [Example 55, 9-{[2-(aminomethyl)-5-{3-[(4-methylpiperazin-1-yl)methyl]phenyl}-1H-indol-7-yl]methyl}-9H-purin-6-amine] was 293 nM.
The value for `NCc1cc2cc(-c3ccccc3F)cc(Cn3cnc4c(N)ncnc43)c2[nH]1` [Example 27, 9-{[2-(aminomethyl)-5-(2-fluorophenyl)-1H-indol-7-yl]methyl}-9H-purin-6-amine] was 1210 nM.
The value for `Cn1ccc2cc(C(=O)NCc3cc4cc(Cl)cc(Cn5cnc6c(N)ncnc65)c4[nH]3)ccc21` [Example 366, N-({7-[(6-amino-9H-purin-9-yl)methyl]-5-chloro-1H-indol-2-yl}methyl)-1-methyl-1H-indole-5-carboxamide] was 2870 nM.
Turning to `Cc1nc(C)c(C(=O)NCc2cc3cc(Cl)cc(Cn4cnc5c(N)ncnc54)c3[nH]2)s1` [Example 161, N-({7-[(6-amino-9H-purin-9-yl)methyl]-5-chloro-1H-indol-2-yl}methyl)-2,4-dimethyl-1,3-thiazole-5-carboxamide], the IC50 worked out at 856 nM.
As to `CC(C)n1nnc2cc(C(=O)NCc3cc4cc(Cl)cc(Cn5cnc6c(N)ncnc65)c4[nH]3)ccc21` [Example 371, N-({7-[(6-amino-9H-purin-9-yl)methyl]-5-chloro-1H-indol-2-yl}methyl)-1-(propan-2-yl)-1H-benzotriazole-5-carboxamide], the IC50 was determined as 21500 nM.
Under `CC(=O)N1CC=C(c2cc(Cn3cnc4c(N)ncnc43)c3[nH]c(CNC(=O)c4ccc(C#N)cc4C)cc3c2)CC1` [Example 307, N-({5-(1-acetyl-1,2,3,6-tetrahydropyridin-4-yl)-7-[(6-amino-9H-purin-9-yl)methyl]-1H-indol-2-yl}methyl)-4-cyano-2-methylbenzamide] stands 29.7 nM.
As for `CS(=O)(=O)c1ccc(-c2cc(Cn3cnc4c(N)ncnc43)c3[nH]c(CN)cc3c2)cc1` [Example 37, 9-({2-(aminomethyl)-5-[4-(methylsulfonyl)phenyl]-1H-indol-7-yl}methyl)-9H-purin-6-amine], the half-maximal inhibitory concentration (IC50) was found to be 321 nM.
Under `COc1ccccc1-c1cc(Cn2cnc3c(N)ncnc32)c2[nH]c(CN)cc2c1` [Example 36, 9-{[2-(aminomethyl)-5-(2-methoxyphenyl)-1H-indol-7-yl]methyl}-9H-purin-6-amine] stands 2410 nM; under `Cc1nnccc1C(=O)NCc1cc2cc(C3=CCNCC3)cc(Cn3cnc4c(N)ncnc43)c2[nH]1` [Example 200, N-({7-[(6-amino-9H-purin-9-yl)methyl]-5-(1,2,3,6-tetrahydropyridin-4-yl)-1H-indol-2-yl}methyl)-3-methylpyridazine-4-carboxamide], 100 nM; under `NCc1cc2c(-c3ccccc3F)ccc(Cn3cnc4c(N)ncnc43)c2[nH]1` [Example 74, 9-{[2-(aminomethyl)-4-(2-fluorophenyl)-1H-indol-7-yl]methyl}-9H-purin-6-amine], 1180 nM.
Under `Cc1ccccc1C(=O)NCc1cc2cc(Cl)cc(Cn3cnc4c(N)ncnc43)c2[nH]1` [Example 248, N-({7-[(6-amino-9H-purin-9-yl)methyl]-5-chloro-1H-indol-2-yl}methyl)-2-methylbenzamide] stands 571 nM; under `Nc1ncnc2c1ncn2Cc1cc(Cl)cc2cc(CNC(=O)C34CC5CC(CC(C5)C3)C4)[nH]c12` [Example 136, N-({7-[(6-amino-9H-purin-9-yl)methyl]-5-chloro-1H-indol-2-yl}methyl)tricyclo[3.3.1.1^3,7]decane-1-carboxamide], 10500 nM.
The value for `Cc1cccc(C(=O)NCc2cc3cc(Cl)cc(Cn4cnc5c(N)ncnc54)c3[nH]2)c1` [Example 247, N-({7-[(6-amino-9H-purin-9-yl)methyl]-5-chloro-1H-indol-2-yl}methyl)-3-methylbenzamide] was 9380 nM.
Take `COCCC(=O)NCc1cc2cc(Cl)cc(Cn3cnc4c(N)ncnc43)c2[nH]1` [Example 100, N-({7-[(6-amino-9H-purin-9-yl)methyl]-5-chloro-1H-indol-2-yl}methyl)-3-methoxypropanamide]: the IC50 came out at 10900 nM.
The value for `Cc1nc2cc(C(=O)NCc3cc4cc(Cl)cc(Cn5cnc6c(N)ncnc65)c4[nH]3)ccc2n1CCO` [Example 376, N-({7-[(6-amino-9H-purin-9-yl)methyl]-5-chloro-1H-indol-2-yl}methyl)-1-(2-hydroxyethyl)-2-methyl-1H-benzimidazole-5-carboxamide] was 2950 nM.
Under `Cc1ccc(N)cc1C(=O)NCc1cc2cc(Cl)cc(Cn3cnc4c(N)ncnc43)c2[nH]1` [Example 271, 5-amino-N-({7-[(6-amino-9H-purin-9-yl)methyl]-5-chloro-1H-indol-2-yl}methyl)-2-methylbenzamide] stands 2980 nM; under `Cc1cc(C(=O)NCc2cc3cc(Cl)cc(Cn4cnc5c(N)ncnc54)c3[nH]2)nn1C` [Example 182, N-({7-[(6-amino-9H-purin-9-yl)methyl]-5-chloro-1H-indol-2-yl}methyl)-1,5-dimethyl-1H-pyrazole-3-carboxamide], 5200 nM; under `Cc1nc(N)c2ncn(Cc3cccc4cc[nH]c34)c2n1` [Example 4, 9-(1H-indol-7-ylmethyl)-2-methyl-9H-purin-6-amine], 14100 nM.
As for `Nc1ncnc2c1ncn2Cc1cc(Cl)cc2cc(CNCCC(=O)O)[nH]c12` [Example 96, 3-[({7-[(6-amino-9H-purin-9-yl)methyl]-5-chloro-1H-indol-2-yl}methyl)amino]propanoic acid], the concentration for half-maximal inhibition (IC50) turned out to be 16300 nM.
Take `Cc1noc(C)c1C(=O)NCc1cc2cc(-c3ccc(F)cc3)cc(Cn3cnc4c(N)ncnc43)c2[nH]1` [Example 165, N-({7-[(6-amino-9H-purin-9-yl)methyl]-5-(4-fluorophenyl)-1H-indol-2-yl}methyl)-3,5-dimethyl-1,2-oxazole-4-carboxamide]: the IC50 was found to be 233 nM.
Under `CS(=O)(=O)c1ccccc1C(=O)NCc1cc2cc(Cl)cc(Cn3cnc4c(N)ncnc43)c2[nH]1` [Example 265, N-({7-[(6-amino-9H-purin-9-yl)methyl]-5-chloro-1H-indol-2-yl}methyl)-2-(methylsulfonyl)benzamide] stands 2140 nM; under `CC(C)(C)OC(=O)N1CCC[C@H]1C(=O)NCc1cc2cc(Cl)cc(Cn3cnc4c(N)ncnc43)c2[nH]1` [Example 123, tert-butyl (2S)-2-[({7-[(6-amino-9H-purin-9-yl)methyl]-5-chloro-1H-indol-2-yl}methyl)carbamoyl]pyrrolidine-1-carboxylate], 44900 nM.
Under `Cc1noc(C)c1C(=O)NCc1cc2cc(-c3ccccc3)cc(Cn3cnc4c(N)ncnc43)c2[nH]1` [Example 164, N-({7-[(6-amino-9H-purin-9-yl)methyl]-5-phenyl-1H-indol-2-yl}methyl)-3,5-dimethyl-1,2-oxazole-4-carboxamide] stands 139 nM; under `Nc1ncnc2c1ncn2Cc1cc(Cl)cc2cc(CNC(=O)CCN3CCCCC3)[nH]c12` [Example 135, N-({7-[(6-amino-9H-purin-9-yl)methyl]-5-chloro-1H-indol-2-yl}methyl)-3-(piperidin-1-yl)propanamide], 4540 nM.
The value for `Nc1ncnc2c1ncn2Cc1cc(Cl)cc2cc(CNC(=O)c3cnc4[nH]ccc4c3Cl)[nH]c12` [Example 348, N-({7-[(6-amino-9H-purin-9-yl)methyl]-5-chloro-1H-indol-2-yl}methyl)-4-chloro-1H-pyrrolo[2,3-b]pyridine-5-carboxamide] was 7270 nM; that for `Nc1ncnc2c1ncn2Cc1cc(Cl)cc2cc(CNC(=O)Cc3cccnc3)[nH]c12` [Example 231, N-({7-[(6-amino-9H-purin-9-yl)methyl]-5-chloro-1H-indol-2-yl}methyl)-2-(pyridin-3-yl)acetamide] was 2480 nM; that for `Cc1cc(C(=O)NCc2cc3c(Cl)ccc(Cn4cnc5c(N)ncnc54)c3[nH]2)c(C)nn1` [Example 239, N-({7-[(6-amino-9H-purin-9-yl)methyl]-4-chloro-1H-indol-2-yl}methyl)-3,6-dimethylpyridazine-4-carboxamide] was 54.7 nM.
For `Nc1ncnc2c1ncn2Cc1cc(Cl)cc2cc(CNC(=O)c3cccnc3)[nH]c12` [Example 196, N-({7-[(6-amino-9H-purin-9-yl)methyl]-5-chloro-1H-indol-2-yl}methyl)pyridine-3-carboxamide], the IC50 came to 905 nM.
Take `COCC(=O)NCc1cc2cc(Cl)cc(Cn3cnc4c(N)ncnc43)c2[nH]1` [Example 95, N-({7-[(6-amino-9H-purin-9-yl)methyl]-5-chloro-1H-indol-2-yl}methyl)-2-methoxyacetamide]: the IC50 was over 50000 nM.
The value for `CS(=O)(=O)c1cc(CNCc2cc3cc(Cl)cc(Cn4cnc5c(N)ncnc54)c3[nH]2)ccc1F` [Example 263, 9-{[5-chloro-2-({[4-fluoro-3-(methylsulfonyl)benzyl]amino}methyl)-1H-indol-7-yl]methyl}-9H-purin-6-amine] was 1750 nM.
Under `Nc1ncnc2c1ncn2Cc1cc(Cl)cc2cc(CNCc3cccc(OCCN4CCCCC4)c3)[nH]c12` [Example 325, 9-({5-chloro-2-[({3-[2-(piperidin-1-yl)ethoxy]benzyl}amino)methyl]-1H-indol-7-yl}methyl)-9H-purin-6-amine] stands 3120 nM; under `N#Cc1ccc(-c2cc(Cn3cnc4c(N)ncnc43)c3[nH]c(CN)cc3c2)cc1` [Example 38, 4-{2-(aminomethyl)-7-[(6-amino-9H-purin-9-yl)methyl]-1H-indol-5-yl}benzonitrile], 810 nM.
